Results reported in patent publication US9758505B2, “3-(indol-3-yl)-pyridine derivatives, pharmaceutical compositions and methods for use” (ITEOS THERAPEUTICS, priority 2014, dated 2017).
Where a name gives a salt, the structure may show the parent alone.

Target: human TDO2 (Homo sapiens (Human), UniProt P48775)
Assay: Cellular assay for TDO2 activity, A172 cells naturally expressing hTDO2
Format: cell-based
Conditions: human glioblastoma A172 cells, overnight incubation, kynurenine in supernatant
Description: A172 is a cell line derived from human brain glioblastoma cells.
To determine TDO, the cells were incubated overnight at 37° C. at 5% CO2 in IMDM (Invitrogen) supplemented with 2% FBS and 2% penicillin/streptomycin in the presence of the compounds of the present invention, at different concentrations.
The plates were then centrifuged 5 min at 1000 rpm, and 100 μL of the supernatant were collected in a conical plate, 30 uL of TCA 30% were added and a further centrifugated at 3000×g for 10 minutes. 100 μL of the supernatant were collected in a flat bottomed plate and 100 μL of 2% (w/v) 4-(dimethylamino)-benzaldehyde in acetic acid and incubated for 5 min at room temperature. Kynurenine concentrations were determined by measuring the absorbance at 480 nm. A standard curve was made with pure kynurenine. The TDO activity was measured as described above using ten serial concentrations of the compounds of the present invention. Data were fitted using the Prism™ software (GraphPad Software, Inc.) using standard software configurations.

human TDO2, sequence (P48775 whole entry): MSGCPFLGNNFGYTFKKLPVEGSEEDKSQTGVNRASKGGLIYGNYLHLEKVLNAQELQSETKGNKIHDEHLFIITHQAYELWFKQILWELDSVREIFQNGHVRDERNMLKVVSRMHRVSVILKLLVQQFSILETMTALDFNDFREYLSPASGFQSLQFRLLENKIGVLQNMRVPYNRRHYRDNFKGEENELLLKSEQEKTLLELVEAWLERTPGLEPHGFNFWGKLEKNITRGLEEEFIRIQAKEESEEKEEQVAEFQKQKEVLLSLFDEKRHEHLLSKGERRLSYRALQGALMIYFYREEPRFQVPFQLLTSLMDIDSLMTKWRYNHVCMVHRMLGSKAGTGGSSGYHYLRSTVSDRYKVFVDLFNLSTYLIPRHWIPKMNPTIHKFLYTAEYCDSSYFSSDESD

For `O=C(Nc1ccc(-c2c[nH]c3cc(F)ccc23)cn1)[C@@H]1CCCN1` [Example 58, (S)—N-(5-(6-fluoro-1H-indol-3-yl)pyridin-2-yl)pyrrolidine-2-carboxamide], which IC50 is on record?
Its IC50 is 810 nM.

`O=S(=O)(c1ccc(-c2c[nH]c3ccc(F)cc23)cn1)N1CCNCC1` [Example 95, 5-fluoro-3-(6-(piperazin-1-ylsulfonyl)pyridin-3-yl)-1H-indole] was tested. Which IC50 did it give?
Its IC50 is 370 nM.

For `O=S(=O)(CCO)NC1CCN(c2ccc(-c3c[nH]c4cc(F)ccc34)cn2)CC1` [Example 62, N-(1-(5-(6-fluoro-1H-indol-3-yl)pyridin-2-yl)piperidin-4-yl)-2-hydroxyethanesulfonamide], which IC50 is on record?
The IC50 was 1300 nM.

For `CN(CCNS(C)(=O)=O)S(=O)(=O)c1ccc(-c2c[nH]c3cc(F)ccc23)cn1` [Example 91, 5-(6-fluoro-1H-indol-3-yl)-N-methyl-N-(2-(methylsulfonamido)ethyl)pyridine-2-sulfonamide], which IC50 is on record?
The IC50 was 270 nM.

With `Cc1ccc2[nH]cc(-c3ccc(S(=O)(=O)N4CCNCC4)nc3)c2c1` [Example 96, 5-methyl-3-(6-(piperazin-1-ylsulfonyl)pyridin-3-yl)-1H-indole] as the molecule, how does the IC50 read?
The IC50 was 530 nM.

`CC(C)[C@H](N)C(=O)Nc1ccc(-c2c[nH]c3cc(F)ccc23)cn1` [Example 38, (S)-2-amino-N-(5-(6-fluoro-1H-indol-3-yl)pyridin-2-yl)-3-methylbutanamide] was tested. Which IC50 did it give?
The IC50 was 740 nM.

For `CN(C)C(=O)Nc1ccc(-c2c[nH]c3cc(F)ccc23)cn1` [Example 65, 3-(5-(6-fluoro-1H-indol-3-yl)pyridin-2-yl)-1,1-dimethylurea], which IC50 is on record?
The IC50 was 820 nM.

With `CN(CCC(N)=O)S(=O)(=O)c1ccc(-c2c[nH]c3cc(F)ccc23)cn1` [Example 101, 3-(5-(6-fluoro-1H-indol-3-yl)-N-methylpyridine-2-sulfonamido)propanamide] as the molecule, how does the IC50 read?
Its IC50 is 360 nM.

Which IC50 does the source give for `CC(=O)N1CCC(C(=O)Nc2ccc(-c3c[nH]c4cc(F)ccc34)cn2)CC1` [Example 42, 1-acetyl-N-(5-(6-fluoro-1H-indol-3-yl)pyridin-2-yl)piperidine-4-carboxamide] here?
The IC50 was 520 nM.

How did the IC50 turn out when `NC(=O)CCNS(=O)(=O)c1ccc(-c2c[nH]c3cc(F)ccc23)cn1` [Example 99, 3-(5-(6-fluoro-1H-indol-3-yl)pyridine-2-sulfonamido)propanamide] was run?
The IC50 was 370 nM.

`Cc1nc2cc(-c3c[nH]c4cc(F)ccc34)cnc2o1` [Example 75, 6-(6-fluoro-1H-indol-3-yl)-2-methyloxazolo[5,4-b]pyridine] was tested. Which IC50 did it give?
The IC50 was 500 nM.

With `CCOC(=O)Cn1c(=O)[nH]c2cc(-c3c[nH]c4cc(F)ccc34)cnc21` [Example 86, ethyl 2-(6-(6-fluoro-1H-indol-3-yl)-2-oxo-1H-imidazo[4,5-b]pyridin-3(2H)-yl)acetate] as the molecule, how does the IC50 read?
The IC50 was 610 nM.

How did the IC50 turn out when `O=S(=O)(CCN1CCOCC1)NC1CCN(c2ccc(-c3c[nH]c4cc(F)ccc34)cn2)CC1` [Example 59, N-(1-(5-(6-fluoro-1H-indol-3-yl)pyridin-2-yl)piperidin-4-yl)-2-morpholinoethanesulfonamide] was run?
The IC50 was 1400 nM.

For `CS(=O)(=O)NC1CCN(c2ccc(-c3c[nH]c4ccccc34)cn2)CC1` [Example 79, N-(1-(5-(1H-indol-3-yl)pyridin-2-yl)piperidin-4-yl)methanesulfonamide], which IC50 is on record?
Its IC50 is 1200 nM.

Which IC50 does the source give for `N[C@@H](Cc1ccccc1)C(=O)Nc1ccc(-c2c[nH]c3cc(F)ccc23)cn1` [Example 36, (S)-2-amino-N-(5-(6-fluoro-1H-indol-3-yl)pyridin-2-yl)-3-phenylpropanamide] here?
Its IC50 is 1100 nM.

`CS(=O)(=O)NC1CCN(c2ccc(-c3c[nH]c4ccc(Cl)cc34)cn2)CC1` [Example 77, N-(1-(5-(5-chloro-1H-indol-3-yl)pyridin-2-yl)piperidin-4-yl)methanesulfonamide] was tested. Which IC50 did it give?
The IC50 was 2800 nM.

With `CNC(=O)Nc1ccc(-c2c[nH]c3cc(F)ccc23)cn1` [Example 66, 1-(5-(6-fluoro-1H-indol-3-yl)pyridin-2-yl)-3-methylurea] as the molecule, how does the IC50 read?
The IC50 was 440 nM.

Which IC50 does the source give for `Nc1nc2ccc(-c3ccc(-c4c[nH]c5cc(F)ccc45)cn3)cc2[nH]1` [Example 67, 6-(5-(6-fluoro-1H-indol-3-yl)pyridin-2-yl)-1H-benzo[d]imidazol-2-amine] here?
Its IC50 is 460 nM.

For `O=S(=O)(c1ccc(-c2c[nH]c3ccccc23)cn1)N1CCNCC1` [Example 93, 3-(6-(piperazin-1-ylsulfonyl)pyridin-3-yl)-1H-indole], which IC50 is on record?
The IC50 was 200 nM.

`O=S(=O)(c1ccc(-c2c[nH]c3cc(F)c(F)cc23)cn1)N1CCNCC1` [Example 94, 5,6-difluoro-3-(6-(piperazin-1-ylsulfonyl)pyridin-3-yl)-1H-indole] was tested. Which IC50 did it give?
The IC50 was 240 nM.

For `CS(=O)(=O)N1CCN(S(=O)(=O)c2ccc(-c3c[nH]c4cc(F)ccc34)cn2)CC1` [Example 90, 6-fluoro-3-(6-((4-(methylsulfonyl)piperazin-1-yl)sulfonyl)pyridin-3-yl)-1H-indole], which IC50 is on record?
Its IC50 is 1400 nM.

For `NS(=O)(=O)c1ccc(-c2c[nH]c3cc(F)ccc23)cn1` [Example 80, 5-(6-fluoro-1H-indol-3-yl)pyridine-2-sulfonamide hydrochloride], which IC50 is on record?
The IC50 was 310 nM.

With `Cc1nc2ncc(-c3c[nH]c4cc(F)ccc34)cc2o1` [Example 74, 6-(6-fluoro-1H-indol-3-yl)-2-methyloxazolo[4,5-b]pyridine] as the molecule, how does the IC50 read?
Its IC50 is 400 nM.

`CN(CCNS(=O)(=O)c1ccc(-c2c[nH]c3cc(F)ccc23)cn1)S(C)(=O)=O` [Example 89, 5-(6-fluoro-1H-indol-3-yl)-N-(2-(N-methylmethylsulfonamido)ethyl)pyridine-2-sulfonamide] was tested. Which IC50 did it give?
Its IC50 is 350 nM.

For `CS(=O)(=O)NCCNS(=O)(=O)c1ccc(-c2c[nH]c3cc(F)ccc23)cn1` [Example 88, 5-(6-fluoro-1H-indol-3-yl)-N-(2-(methylsulfonamido)ethyl)pyridine-2-sulfonamide], which IC50 is on record?
Its IC50 is 350 nM.

Which IC50 does the source give for `CS(=O)(=O)NCCCC(=O)Nc1ccc(-c2c[nH]c3cc(F)ccc23)cn1` [Example 70, N-(5-(6-fluoro-1H-indol-3-yl)pyridin-2-yl)-4-(methylsulfonamido)butanamide] here?
Its IC50 is 720 nM.

How did the IC50 turn out when `O=C1COCCN1c1ccc(-c2c[nH]c3cc(F)ccc23)cn1` [Example 82, 4-(5-(6-fluoro-1H-indol-3-yl)pyridin-2-yl)morpholin-3-one] was run?
The IC50 was 590 nM.

Which IC50 does the source give for `CS(=O)(=O)NC1CCN(c2ccc(-c3c[nH]c4ccc(F)cc34)cn2)CC1` [Example 81, N-(1-(5-(5-fluoro-1H-indol-3-yl)pyridin-2-yl)piperidin-4-yl)methanesulfonamide] here?
The IC50 was 2000 nM.

How did the IC50 turn out when `O=c1[nH]c2cc(-c3c[nH]c4cc(F)ccc34)cnc2[nH]1` [Example 73, 6-(6-fluoro-1H-indol-3-yl)-1H-imidazo[4,5-b]pyridin-2(3H)-one] was run?
The IC50 was 600 nM.

For `CS(=O)(=O)Nc1ccc(-c2c[nH]c3cc(F)ccc23)cn1` [Example 60, N-(5-(6-fluoro-1H-indol-3-yl)pyridin-2-yl)methanesulfonamide], which IC50 is on record?
The IC50 was 700 nM.

How did the IC50 turn out when `O=C1CNCCN1c1ccc(-c2c[nH]c3cc(F)ccc23)cn1` [Example 83, 1-(5-(6-fluoro-1H-indol-3-yl)pyridin-2-yl)piperazin-2-one] was run?
Its IC50 is 1500 nM.

With `O=C1Cc2ncc(-c3c[nH]c4cc(F)ccc34)cc2N1` [Example 76, 6-(6-fluoro-1H-indol-3-yl)-1H-pyrrolo[3,2-b]pyridin-2(3H)-one] as the molecule, how does the IC50 read?
Its IC50 is 4100 nM.

How did the IC50 turn out when `COCCS(=O)(=O)NC1CCN(c2ccc(-c3c[nH]c4cc(F)ccc34)cn2)CC1` [Example 57, N-(1-(5-(6-fluoro-1H-indol-3-yl)pyridin-2-yl)piperidin-4-yl)-2-methoxyethanesulfonamide] was run?
Its IC50 is 1400 nM.
